Measurements taken from patent US20190031624A1, “THERAPEUTIC COMPOUNDS AND METHODS TO TREAT INFECTION” (priority 2017, published 2019).
Converted amounts (≈) assume the structure as drawn. Structures can show the parent of a compound that is named as a salt. Where two headings read alike, the source gives them in different places.

Legend:
P. aeruginosa PAO1 [1] = assay: MIC assay in the presence of a bacterial efflux pump inhibitor (EPI); type: cell-based, Pseudomonas aeruginosa; details: with 12.5 ug/ml of EPI (2S,4R)-4-(ammoniomethyl)-2-((6-(4-fluorophenyl)-1H-indole-2-carboxamido)methyl)pyrrolidin-1-ium, MIC90
Procedure: (§1) The ability of a compound to produce an antibiotic effect can be determined using a method as described in Example 21. Data for representative compounds used in combination with the efflux pump inhibitor [(2S,4R)-4-(ammoniomethyl)-2-((6-(4-fluorophenyl)-1H-indole-2-carboxamido)methyl)pyrrolidin-1-ium] is shown in Table 1.
(§2) MIC assays were conducted in accordance with Clinical and Laboratory Standards Institute (CLSI) guidelines for broth microdilution. A 96-well plate containing cation-adjusted Mueller-Hinton (CAMH broth with 2-fold serial dilution of compounds was inoculated with log-phase bacterial at 5×10^5 CFU/mL. The final volume in each well was 100 μL. Each compound was tested in duplicate. The microtiter plates were incubated in an aerobic environment for 18 hours at 37° C. Then the bacterial growth was tested by reading the plate with a VersaMax plate reader (Molecular Devices, Inc.) at 600 nm. The MIC was defined as the lowest compound concentration that inhibited 90% of bacteria growth.
(§3) Pseudomonas aeruginosa PAO1
(§4) The EPI assay for the purposes of these studies represents a MIC assay in which the MIC of the antibiotic against the bacteria is tested in the presence of an experimental efflux pump inhibitor (EPI). The highest concentration of the EPI present in the assay typically is ½ of the intrinsic MIC of the compound. If the intrinsic MIC of the EPI is greater than 100 μg/mL, the EPI assay was tested with 50 μg/mL. Using serial dilutions of the EPI, its enhancement of antibiotic activity was then evaluated. The relative EPI activity was decided by comparing the MIC of the antibiotic in the presence of the EPI compound with the intrinsic MIC of the antibiotic alone. For comparative purposes, we generally used EPIs at concentration of 12.5 and 6.25 μg/ml against varying concentration of our test antibiotic.

E. coli 25922 [2] = assay: Intrinsic MIC assay (CLSI broth microdilution); type: cell-based, Escherichia coli; details: for MIC: read-out: Antibiotic Activity Against E. coli: Intrinsic MIC
Procedure: as §2
(§5) Escherichia coli ATCC 25922

E. coli 25922 [3] = assay: MIC assay in the presence of a bacterial efflux pump inhibitor (EPI); type: cell-based, Escherichia coli; details: with 12.5 ug/ml of EPI (2S,4R)-4-(ammoniomethyl)-2-((6-(4-fluorophenyl)-1H-indole-2-carboxamido)methyl)pyrrolidin-1-ium, MIC90
Procedure: as §1, §2, §5, §4

P. aeruginosa PAO1 [4] = assay: Intrinsic MIC assay (CLSI broth microdilution); type: cell-based, Pseudomonas aeruginosa; details: for MIC: Pseudomonas aeruginosa, read-out: Antibiotic Activity Against P. aeruginosa: Intrinsic MIC
Procedure: as §2, §3

MreB = details: P. aeruginosa strains with defective efflux transporters; cited from earlier work
[5] = target: T1, MexAB-OprM efflux transporter (Pseudomonas aeruginosa, UniProt P52002); details: wild-type P. aeruginosa; cited from earlier work
T1 construct: MexAB-OprM efflux transporter present in wild-type P. aeruginosa; endogenous in cells; host or cells: wild-type P. aeruginosa

[6] = Escherichia coli, 18 h, E. coli 25922, without EPI, MIC90
[7] = 18 h, P. aeruginosa PAO1, without EPI, MIC90

T1 sequence (Q51487 18-485): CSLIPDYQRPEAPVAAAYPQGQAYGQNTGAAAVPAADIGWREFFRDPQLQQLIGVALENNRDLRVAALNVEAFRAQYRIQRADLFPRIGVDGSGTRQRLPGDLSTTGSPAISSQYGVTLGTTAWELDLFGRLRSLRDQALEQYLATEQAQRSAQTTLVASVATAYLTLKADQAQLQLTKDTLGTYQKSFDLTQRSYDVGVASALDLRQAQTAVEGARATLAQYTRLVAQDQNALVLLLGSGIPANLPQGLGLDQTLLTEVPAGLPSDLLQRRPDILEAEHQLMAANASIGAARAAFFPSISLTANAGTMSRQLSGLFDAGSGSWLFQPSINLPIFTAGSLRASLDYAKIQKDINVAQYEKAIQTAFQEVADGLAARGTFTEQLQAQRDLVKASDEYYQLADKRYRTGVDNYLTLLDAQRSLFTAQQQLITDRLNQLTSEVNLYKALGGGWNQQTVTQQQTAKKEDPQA
T1 sequence (P52477 24-383, further chain): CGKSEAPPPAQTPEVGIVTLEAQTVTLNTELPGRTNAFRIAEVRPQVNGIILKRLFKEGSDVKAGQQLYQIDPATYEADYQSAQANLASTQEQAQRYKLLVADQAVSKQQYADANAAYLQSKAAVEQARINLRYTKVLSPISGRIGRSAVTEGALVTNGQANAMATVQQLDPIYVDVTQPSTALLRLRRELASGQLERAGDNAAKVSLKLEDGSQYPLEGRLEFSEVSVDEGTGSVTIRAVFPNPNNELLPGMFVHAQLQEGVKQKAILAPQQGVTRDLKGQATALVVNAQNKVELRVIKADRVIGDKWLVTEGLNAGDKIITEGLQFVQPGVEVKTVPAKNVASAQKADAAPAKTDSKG
T1 sequence (P52002 whole entry): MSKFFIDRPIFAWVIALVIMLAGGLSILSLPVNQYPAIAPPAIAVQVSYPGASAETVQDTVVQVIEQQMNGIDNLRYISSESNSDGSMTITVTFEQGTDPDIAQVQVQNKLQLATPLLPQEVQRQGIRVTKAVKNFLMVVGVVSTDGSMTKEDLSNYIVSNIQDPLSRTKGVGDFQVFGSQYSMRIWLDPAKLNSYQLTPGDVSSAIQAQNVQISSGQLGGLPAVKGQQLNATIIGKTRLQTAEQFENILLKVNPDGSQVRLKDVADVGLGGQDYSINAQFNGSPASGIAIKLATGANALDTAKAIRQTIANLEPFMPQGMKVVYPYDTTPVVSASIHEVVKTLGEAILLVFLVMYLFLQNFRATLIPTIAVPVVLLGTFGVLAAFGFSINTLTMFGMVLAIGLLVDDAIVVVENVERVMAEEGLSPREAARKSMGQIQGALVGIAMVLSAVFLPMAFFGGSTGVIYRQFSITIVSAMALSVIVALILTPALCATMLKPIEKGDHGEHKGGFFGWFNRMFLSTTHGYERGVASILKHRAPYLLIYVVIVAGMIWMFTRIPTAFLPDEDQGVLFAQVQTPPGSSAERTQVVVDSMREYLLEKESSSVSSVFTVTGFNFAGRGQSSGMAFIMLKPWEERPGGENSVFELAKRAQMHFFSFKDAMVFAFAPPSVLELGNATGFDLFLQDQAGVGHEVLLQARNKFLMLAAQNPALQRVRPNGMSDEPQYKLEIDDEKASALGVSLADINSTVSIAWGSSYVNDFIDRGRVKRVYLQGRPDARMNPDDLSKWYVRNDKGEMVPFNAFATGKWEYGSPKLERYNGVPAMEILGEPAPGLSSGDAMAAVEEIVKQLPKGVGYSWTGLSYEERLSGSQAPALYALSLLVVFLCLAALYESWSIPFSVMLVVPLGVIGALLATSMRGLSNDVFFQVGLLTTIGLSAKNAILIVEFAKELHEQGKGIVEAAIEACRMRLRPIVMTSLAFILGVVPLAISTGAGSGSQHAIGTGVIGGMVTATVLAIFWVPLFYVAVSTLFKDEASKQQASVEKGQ

Molecule	Antibiotic Activity Against P. aeruginosa: MIC with EPI (Enhancement) (P. aeruginosa PAO1 [1]) [µg/mL]	MIC (E. coli 25922 [2]; [6]) [µg/mL]	Antibiotic Activity Against E. coli: MIC with EPI (Enhancement) (E. coli 25922 [3]) [µg/mL]	MIC (P. aeruginosa PAO1 [4]; [7]) [µg/mL]	MIC (E. coli 25922 [2]; Escherichia coli, 25922, 18 h) [µg/mL]	MIC (P. aeruginosa PAO1 [4]; PAO1, 18 h) [µg/mL]	MreB inhibition (MreB)	efflux transporter substrate [5]	Antibiotic Activity Against E. coli: Intrinsic MIC (E. coli 25922 [2]; E. coli 25922, without EPI, MIC90) [µg/mL]	Antibiotic Activity Against P. aeruginosa: Intrinsic MIC (P. aeruginosa PAO1 [4]; P. aeruginosa PAO1, without EPI, MIC90) [μ/mL]
Cl.N=C(N)SCc1ccc(Cl)c(Cl)c1 [Example 1, 3,4-Dichlorobenzyl Carbamimidothioate Hydrobromide]	0.5	64	4	> 256						
Br.N=C(N)SCc1ccc(Cl)cc1Cl [Example 2, 2,4-Dichlorobenzyl Carbamimidothioate Hydrobromide]	1.0	> 256	>256	> 256						
Br.CC(C)(C)c1ccc(CSC(=N)N)cc1 [Example 3, 4-(t-Butyl)Benzyl Carbamimidothioate Hydrobromide]	256	256	256	> 256						
N=C(N)SCCc1ccc(Cl)c(Cl)c1 [Example 4, 3,4-dichlorophenethyl carbamimidothioate]	>256	256 (≈ 1030 µM)	256	> 256						
Br.CC(SC(=N)N)c1ccc(Cl)c(Cl)c1 (stereo not shown) [Example 5, 1-(3,4-Dichlorophenyl)ethyl Carbamimidothioate Hydrobromide]	4.0	256	256	> 256						
CNC(=N)SCc1ccc(Cl)c(Cl)c1.Cl [Example 6, 3,4-dichlorobenzyl Methylcarbamimidothioate Hydrobromide]	4.0	> 256	>256	> 256						
Br.N=C(N)SCc1ccc(Br)cc1 [Example 7, 4-Bromobenzyl Carbamimidothioate Hydrobromide]	1.0	> 256	>256	> 256						
N=C(N)SCc1cccc(Br)c1 [Example 8, 3-bromobenzyl Carbamimidothioate Hydrobromide]	>256		>256		> 256	> 256				
Br.N=C(N)SCc1ccc(-c2ccc(F)cc2)cc1 [Example 9, (4′-fluoro-[1,1′-biphenyl]-4-yl)methyl Carbamimidothioate Hydrobromide]	>256	64	64	> 256						
N=C(N)SCc1cccc(-c2ccc(F)cc2)c1 [Example 10, (4′-fluoro-[1,1′-biphenyl]-3-yl)methyl Carbamimidothioate Hydrobromide]	>256	64	64	> 256						
N=C(N)SCc1cccc2ccccc12 [Example 11, naphthalen-1-ylmethyl Carbamimidothioate Hydrobromide]	>256	> 256	>256	> 256						
Cl.N=C(N)SCc1ccc2ccccc2c1 [Example 12, naphthalen-2-ylmethyl Carbamimidothioate Hydrobromide]	4	> 256	16	> 256						
CN1CN=C(SCc2ccc3ccccc3c2)NC1 [Example 13, 3-methyl-6-((naphthalen-2-ylmethyl)thio)-1,2,3,4-tetrahydro-1,3,5-triazine]	16	> 256	16	> 256						
N=C(N)SCc1ccc(C(F)(F)F)nc1 [Example 14, (6-(trifluoromethyl)pyridin-3-yl)methyl Carbamimidothioate Hydrochloride]	>256		>256		> 256	> 256				
N=C(N)SCc1ccc2occc2c1 [Example 15, benzofuran-5-ylmethyl Carbamimidothioate Hydrobromide]	4	> 256	>256	16						
N=C(N)SCc1ccc2sccc2c1 [Example 16, Benzo[b]thiophen-5-ylmethyl Carbamimidothioate Hydrobromide]	4	> 256	>256	> 256						
CC(C)(C)OC(=O)n1ccc2cc(CSC(=N)N)ccc21 [Example 17, t-Butyl 5-((carbamimidoylthio)methyl)-1H-indole-1-carboxylate]	>256	> 128	128	> 256						
N=C(N)SCc1ccc2ncccc2c1 [Example 18, quinolin-6-ylmethyl Carbamimidothioate Hydrobromide]	>256	> 256	>256	> 256						
Br.N=C(N)SCc1cccc2cccnc12 [Example 19, quinolin-8-ylmethyl Carbamimidothioate Hydrobromide]	>256	> 256	>256	> 256						
N=C(N)SCc1ccc(Cl)c(Cl)c1 [Example A22, S-(3,4-Dichlorobenzyl)isothiourea]							effective MreB inhibitor	substrate for the MexAB-OprM efflux transporter		
Isoquinolin-5-ylmethyl Carbamimidothioate Hydrobromide [Example 20]	>256		>256						>256	>256
